Results reported in patent publication US20110086834A1, “ALKYNYL ALCOHOLS AS KINASE INHIBITORS” (AMGEN INC., priority 2008, published 2011).

Tests used:
[1] = molecular target: T1, NIK (Homo sapiens, UniProt Q99558); assay: chemiluminescent (CL) assay for NIK IC50 determination; assay type: biochemical; settings: truncated NIK (catalytic domain only), autophosphorylation; 50 nM biotinylated-NIK; 50 μM ATP; room temperature, 1 hour
T1 construct: Both assays utilize a truncated form of NIK containing only the catalytic domain; made in house; host or cells: baculovirus expression system (insect cells implied)
Experimental: Two formats of biochemical assays are implemented: (1) chemiluminescent (CL) assay for NIK IC50 determination; (2) homogenous time resolved fluorescence (HTRF) assay for NIK Ki measurement. […] The NIK proteins are purified with baculovirus expression system and further biotinylated with N-hydroxysuccinamide biotin ester (Sigma). […] The reaction mixtures are then immobilized on a Streptavidin-coated plate (Pierce). […] For the HTRF assay, 10 nM of enzyme are incubated with compounds in the presence of 20, 100, 200, or 500 μM of ATP in a buffer with 20 mM of Hepes pH7.5, 20 mM of MgCl2, 0.2% of Tween 20 and 1 mM of DTT at room temperature for 2 hours.

[2] = molecular target: T1, NIK; assay: homogenous time resolved fluorescence (HTRF) assay for NIK Ki measurement; assay type: biochemical; settings: truncated NIK (catalytic domain only), autophosphorylation; 10 nM enzyme; 20, 100, 200 or 500 μM ATP; room temperature, 2 hours; read-out: Ki activity in the homogenous time resolved fluorescence (HTRF) assay for NIK

T1 sequence (Q99558 400-655 limits assumed): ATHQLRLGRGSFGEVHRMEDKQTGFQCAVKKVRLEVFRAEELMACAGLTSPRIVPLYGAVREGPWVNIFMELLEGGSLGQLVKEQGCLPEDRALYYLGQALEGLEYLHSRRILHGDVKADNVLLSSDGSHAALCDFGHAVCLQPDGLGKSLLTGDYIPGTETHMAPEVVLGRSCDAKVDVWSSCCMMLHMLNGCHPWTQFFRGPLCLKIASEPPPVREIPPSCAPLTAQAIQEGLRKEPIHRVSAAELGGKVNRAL

Compound `CN1CCC2(C1)CN(c1ccnc(N)n1)c1cc(C#CC3(O)CCCC3)ccc12` (racemic) [Example 189, (rac)-1-((1-(2-Amino-4-pyrimidinyl)-1′-methyl-1,2-dihydrospiro[indole-3,3′-pyrrolidin]-6-yl)ethynyl)cyclopentanol] has an IC50 [1] of less than 1 µM.

`CC1(CCO)CN(c2nc(N)ncc2Cl)c2cc(C#CC3(O)CCCC3)ccc21` (stereo not drawn) [Example 51, 1-((1-(2-amino-5-chloro-4-pyrimidinyl)-3-(2-hydroxyethyl)-3-methyl-2,3-dihydro-1H-indol-6-yl)ethynyl)cyclopentanol] gave an IC50 [1] of less than 1 µM.

With `COCCn1cc(-c2nc(N)ncc2Cl)c2cc(C#CC(C)(O)c3nccs3)ccc21` (stereo not drawn) [Example 115, 4-(3-(2-amino-5-chloropyrimidin-4-yl)-1-(2-methoxyethyl)-1H-indol-5-yl)-2-(thiazol-2-yl)but-3-yn-2-ol] the IC50 [1] was less than 1 µM.

For `Nc1ncc(Cl)c(-c2cn(C(=O)c3cccnc3)c3ccc(C#CC4(O)CCCC4)cc23)n1` [Example 123, (3-(2-amino-5-chloropyrimidin-4-yl)-5-(2-(1-hydroxycyclopentyl)ethynyl)-1H-indol-1-yl)(pyridin-3-yl)methanone], the IC50 [1] was less than 1 µM.

For `Nc1ncc(Cl)c(-c2cn(C3CCOC3)c3ccc(C#CC4(O)CCCC4)cc23)n1` (stereo not drawn) [Example 138, 1-(2-(3-(2-amino-5-chloropyrimidin-4-yl)-1-(tetrahydrofuran-3-yl)-1H-indol-5-yl)ethynyl)cyclopentanol], the IC50 [1] was less than 1 µM.

Work on `COCCn1cc(-c2nc(N)ncc2Cl)c2cc(C#CC3(O)CC[C@@H](C)C3)ccc21` (stereo partly drawn) [Example 140, (3R)-1-(2-(3-(2-amino-5-chloropyrimidin-4-yl)-1-(2-methoxyethyl)-1H-indol-5-yl)ethynyl)-3-methylcyclopentanol] yielded an IC50 [1] of less than 1 µM.

In the case of `COCCOc1cnc(N)nc1-c1c[nH]c2ccc(C#CC(O)(c3ccccc3)C(F)(F)F)cc12` (stereo not drawn) [Example 235, 4-(3-(2-Amino-5-(2-methoxyethoxy)-4-pyrimidinyl)-1H-indol-5-yl)-1,1,1-trifluoro-2-phenyl-3-butyn-2-ol], the IC50 [1] is reported as less than 1 µM.

`O=C(c1ccc(Nc2nccc(N3CCc4ccc(C#CC5(O)CCCC5)cc43)n2)cc1)N1CCOCC1` [Example 263, 1-((1-(2-((4-(4-morpholinylcarbonyl)phenyl)amino)-4-pyrimidinyl)-2,3-dihydro-1H-indol-6-yl)ethynyl)cyclopentanol] showed an IC50 [1] of less than 1 µM.

Compound `CC(O)(C#Cc1ccc2c(c1)N(c1nc(N)ncc1Cl)CC2)c1nccs1` (stereo not drawn) [Example 286, 4-(1-(2-Amino-5-chloro-4-pyrimidinyl)-2,3-dihydro-1H-indol-6-yl)-2-(1,3-thiazol-2-yl)-3-Butyn-2-ol] has an IC50 [1] of less than 1 µM.

`CC(O)(C#Cc1ccc2c(c1)N(c1nc(N)ncc1Cl)CC21CCCC1)c1nccs1` (stereo not drawn) [Example 317, 4-(1′-(2-amino-5-chloro-4-pyrimidinyl)-1′,2′-dihydrospiro[cyclopentane-1,3′-indol]-6′-yl)-2-(1,3-thiazol-2-yl)-3-Butyn-2-ol] gave a Ki [2] of less than 1 µM.

In the case of `C[C@@](O)(C#Cc1ccc2c(c1)N(c1nc(N)ncc1Cl)CC21CCCC1)c1nccs1` [Example 318], the Ki [2] is reported as less than 1 µM.

`CC(O)(C#Cc1ccc2c(c1)N(c1nc(N)ncc1Cl)CC21CCCC1)c1ncco1` (stereo not drawn) [Example 319, 4-(1′-(2-Amino-5-chloro-4-pyrimidinyl)-1′,2′-dihydrospiro[cyclopentane-1,3′-indol]-6′-yl)-2-(1,3-oxazol-2-yl)-3-butyn-2-ol] was tested, and the Ki [2] was less than 1 µM.
